According to PMC6211260 (Journal of Enzyme Inhibition and Medicinal Chemistry, 2018):
pIC50: −log10 of the molar value.

How the values were obtained:
Format in all cases: cell-based
T-47D cell line = test: NCI-60 single-dose screening; conditions: 10 µM
Protocol: (§1) Screening against the cancer cell lines was carried out at the National Cancer Institute (NCI, Bethesda, Maryland, USA) applying the standard protocol of the NCI[22].
(§2) The final target compounds were submitted to the National Cancer Institute (NCI), Maryland, USA[23]. Thirty-one compounds were selected to be tested over 60 cell lines at single dose 10 µM.

NCI-60 cell line panel = test: NCI-60 single-dose (10 µM) antiproliferative screening, mean over panel; conditions: single-dose 10 µM
Protocol: as §1, §2

[1] = system: Colo 205 colon cancer cell line; test: NCI-60 single-dose screening; conditions: 10 µM
Protocol: as §1, §2

[2] = system: HT29 colon cancer cell line; test: NCI-60 single-dose screening; conditions: 10 µM
Protocol: as §1, §2

[3] = system: SK-MEL-5 melanoma cell line; test: NCI-60 single-dose screening; conditions: 10 µM
Protocol: as §1, §2

CNS cancer cell lines = test: NCI five-dose testing, subpanel mean; conditions: subpanel IV: CNS cancer
Protocol: as §1

Leukaemia cell lines = test: NCI five-dose testing, subpanel mean; conditions: subpanel I: Leukaemia
Protocol: as §1

breast cancer cell lines = test: NCI five-dose testing, subpanel mean; conditions: subpanel IX: breast cancer
Protocol: as §1

colon cancer cell lines = test: NCI five-dose testing, subpanel mean; conditions: subpanel III: colon cancer
Protocol: as §1

melanoma cell lines = test: NCI five-dose testing, subpanel mean; conditions: subpanel V: melanoma
Protocol: as §1

[4] = system: non-small cell lung cancer cell lines; test: NCI five-dose testing, subpanel mean; conditions: subpanel II: non-small cell lung cancer
Protocol: as §1

[5] = system: ovarian cancer cell lines; test: NCI five-dose testing, subpanel mean; conditions: subpanel VI: ovarian cancer
Protocol: as §1

[6] = system: prostate cancer cell lines; test: NCI five-dose testing, subpanel mean; conditions: subpanel VIII: prostate cancer
Protocol: as §1

renal cancer cell lines = test: NCI five-dose testing, subpanel mean; conditions: subpanel VII: renal cancer
Protocol: as §1

[7] = system: A498 renal cancer cell line; test: NCI five-dose testing; conditions: Homo sapiens
Protocol: as §1

[8] = system: HOP-92 non-small cell lung cancer cell line; test: NCI five-dose testing; conditions: Homo sapiens
Protocol: as §1

[9] = system: HT-29 colon cancer cell line; test: NCI five-dose testing; conditions: Homo sapiens
Protocol: as §1

[10] = system: K-562 leukaemia cell line; test: NCI five-dose testing; conditions: Homo sapiens
Protocol: as §1

[11] = system: MDA-MB-468 breast cancer cell line; test: NCI five-dose testing; conditions: Homo sapiens
Protocol: as §1

[12] = system: OVCAR-4 ovarian cancer cell line; test: NCI five-dose testing; conditions: Homo sapiens
Protocol: as §1

[13] = system: PC-3 prostate cancer cell line; test: NCI five-dose testing; conditions: Homo sapiens
Protocol: as §1

[14] = system: SK-MEL-5 melanoma cell line; test: NCI five-dose testing; conditions: Homo sapiens
Protocol: as §1

[15] = system: U251 CNS cancer cell line; test: NCI five-dose testing; conditions: Homo sapiens
Protocol: as §1

SMILES: COc1cccc(-c2nn(-c3ccccc3)cc2-c2ccnc(NCCCNS(=O)(=O)c3ccc(Br)cc3)c2)c1 [Compound 2b, 4-Bromo-N-(3-((4-(3-(3-methoxyphenyl)-1-phenyl-1H-pyrazol-4-yl)pyridin-2-yl)amino)propyl) benzenesulfonamide]
- per cent inhibition (T-47D cell line): 83.30%

SMILES: COc1cccc(-c2nn(-c3ccccc3)cc2-c2ccnc(NCCCNS(=O)(=O)c3ccc(C(F)(F)F)cc3)c2)c1 [Compound 2g, N-(3-((4-(3-(3-Methoxyphenyl)-1-phenyl-1H-pyrazol-4-yl)pyridin-2-yl)amino)propyl)-4-(trifluoromethyl)benzenesulfonamide]
- inhibition at 10 µM (NCI-60 cell line panel; 60-cancer cell line screening): 76.5%
- number of cell lines with more than 100% inhibition (NCI-60 cell line panel; NCI-60 panel): 13
- per cent inhibition [1]: lethal effect
- per cent inhibition [2]: lethal effect
- per cent inhibition [3]: lethal effect
- pIC50 (CNS cancer cell lines): 5.28
- pIC50 (Leukaemia cell lines): 5.47
- pIC50 (breast cancer cell lines): 5.39
- pIC50 (colon cancer cell lines): 5.31
- pIC50 (melanoma cell lines): 5.31
- pIC50 [4]: 5.20
- pIC50 [5]: 5.21
- pIC50 [6]: 4.89
- pIC50 (renal cancer cell lines): 5.27
- pIC50 ([7]; A498): 5.42
- LC50 (lethal concentration 50%) ([7]; A498, read-out: LD50 (lethal dose 50)): > 100 µM
- IC (TGI) ([7]; A498, read-out: TGI (total growth inhibition concentration)): > 100 µM
- pIC50 ([8]; HOP-92): 5.43
- IC (TGI) ([8]; HOP-92, HOP-92, read-out: TGI (total growth inhibition concentration)): > 100 µM
- LD50 (lethal dose 50) ([8]; HOP-92, read-out: LD50 (lethal dose 50)): > 100 µM
- CC50 ([9]; HT-29, read-out: LD50 (lethal dose 50)): > 100 µM
- pIC50 ([9]; HT-29, read-out: IC50): 5.49
- IC (TGI) ([9]; HT-29, read-out: TGI (total growth inhibition concentration)): 10 µM
- CC50 ([10]; K562, read-out: LD50 (lethal dose 50)): > 100 µM
- pIC50 ([10]; K562, K-562): 5.51
- IC (TGI) ([10]; K562, K-562, read-out: TGI (total growth inhibition concentration)): > 100 µM
- pIC50 ([11]; MDA-MB-468): 5.51
- CC50 ([11]; MDA-MB-468, read-out: LD50 (lethal dose 50)): > 100 µM
- IC (TGI) ([11]; MDA-MB-468, read-out: TGI (total growth inhibition concentration)): > 100 µM
- pIC50 ([12]; OVCAR-4): 5.36
- LC50 (lethal concentration 50) ([12]; OVCAR-4, read-out: LD50 (lethal dose 50)): > 100 µM
- IC (TGI) ([12]; OVCAR-4, read-out: TGI (total growth inhibition concentration)): > 100 µM
- LC50 (lethal concentration 50) ([13]; PC-3, read-out: LD50 (lethal dose 50)): > 100 µM
- pIC50 ([13]; PC-3, read-out: IC50): 5.47
- IC (TGI) ([13]; PC-3, read-out: TGI (total growth inhibition concentration)): > 100 µM
- pIC50 ([14]; SK-MEL-5): 5.66
- LC50 (lethal concentration 50) ([14]; SK-MEL-5, read-out: LD50 (lethal dose 50)): 23.1 µM
- IC (TGI) ([14]; SK-MEL-5, read-out: TGI (total growth inhibition concentration)): 5 µM
- CC50 ([15]; U-251, read-out: LD50 (lethal dose 50)): > 100 µM
- pIC50 ([15]; U-251, U251, read-out: IC50): 5.25
- IC (TGI) ([15]; U-251, U251, read-out: TGI (total growth inhibition concentration)): > 100 µM
